Data on five compounds can be found in patent US7531187B2, “Synergistic insecticidal composition containing chloronicotynyle and pyrethroids compounds” (United Phosphorus, Ltd., priority 2004, dated 2009).

Read-outs that look alike come from different tables or passages of the source. Bounds are passed on as bounds.

Data set [1] has as its system Brown plant hoppers and Green plant hoppers. As to the kind of experiment: Treated paddy leaf bioassay, larval mortality, Colby synergism (Examples 13-14). Format: in vivo. The protocol: In this evaluation, Brown plant hoppers and Green plant hoppers are obtained from laboratory colonies. Paddy leaves are immersed in 1:1 v/v, acetone/water solutions of the test compound, or solution of a combination of the test compounds for a period of about 4 seconds. Following immersion, leaves are allowed to air-dry for 2-3 hours. Plastic bioassay trays containing multiple open-faced wells (4.0×4.0×2.5 cm) are used. Cut portions of a treated leaf, a moistened cotton dental wick and a single third-instar larva are placed into each well. These wells are covered with an adhesive vented clear plastic sheet which is held under constant fluorescent light at about 30° C. for a predetermined period of time. Larval mortality/morbidity is evaluated at 5 days after treatment. All treatments are replicated 3-4 fold in a randomized complete block design with 15-30 larvae per treatment. Using conventional log-probit analysis, the LC50 of each treatment is determined.
Synergism can be calculated by using the Colby's method i.e. the expected (or predicted) response of the combination is calculated by taking the product of the observed response for each individual component of the combination when applied alone divided by 100 and subtracting this value from the sum of observed response for each component when applied alone. Synergism of the combination is then determined by comparing the observed response of the combination to the expected (or predicted) response as calculated from the observed response of each individual component alone. If the observed response of the combination is greater than the expected (or predicted) response, then the combination is said to be synergistic and falls within the definition of synergistic effect. (Colby, S. R., Weeds, 1967(15), p. 20-22)

Data set [2] deals with flies. Conditions: cited from earlier work.
For data set [3] the following is noted: cited from earlier work.
For data set [4] the following is noted: cited from earlier work. This is another data set of the same source.
The conditions of data set [5]: cited from earlier work; for pH of optimum stability: more stable in acid than in alkaline media.
For data set [6], the system named is rats. The settings on record: cited from earlier work.
Data set [7] deals with domestic fowl. The settings on record: cited from earlier work.
Data set [8] deals with rats. The settings on record: cited from earlier work. This is another data set of the same source.
For data set [9], the system named is rabbits. Conditions: cited from earlier work.
Data set [10] relates to rats. The settings on record: cited from earlier work. The source holds these as a separate data set.
The conditions of data set [11]: in vivo; cited from earlier work.
For data set [12], the system named is cockroaches and other crawling insets. The settings on record: 100 mg a.i. (as WP)/m^2; cited from earlier work.
The subject of data set [13] is mice. The settings on record: cited from earlier work.
The subject of data set [14] is chicken. Conditions: cis/trans ratio of 40:60; cited from earlier work.
Data set [15] relates to Japanese quail. The settings on record: cis/trans ratio of 40:60; cited from earlier work.

With `CC1(C)C(C=C(Cl)Cl)C1C(=O)OC(C#N)c1cccc(Oc2ccccc2)c1` (racemic) [Cypermethrin, (RS)-α-cyano-3-phenoxybenzyl (1RS, 3RS; IRS, 3SR)-3-(2,2-dichlorovinyl)-2,2-dimethyl cyclopropane carboxylate], the “Observed Mortality %” value in [1] (Table 2, Cypermethrin 80 ppm alone) is given as 52.5%; in [1] (Table 2, Cypermethrin 85 ppm alone) it was 60%; in data set [1] (Table 2, Cypermethrin 90 ppm alone) it was 70%; in data set [1] (Table 3, Cypermethrin 80 ppm alone), 60.0%; in data set [1] (Table 3, Cypermethrin 85 ppm alone), 65%; in [1] (Table 3, Cypermethrin 90 ppm alone), 72.0%.
In the case of `CC(C)[C@@H](C(=O)O[C@@H](C#N)c1cccc(Oc2ccccc2)c1)c1ccc(Cl)cc1` (racemic) [Fenvalerate, (RS)-α-cyano-3-phenoxybenzyl (RS)-2-(4-chlorophenyl)-3-methylbutyrate], in [2] (110 mg/aquare meter wall), the “duration of control of flies in cattle sheds” value is 60 days. Moreover, the solubility in water in [3] (20° C.) is less than 1 µg/mL. In data set [4] (23° C.), the “Solubility in acetone, chloroform, cyclohexanone, ethanol, xylene” value was more than 1 kg/kg and the Solubility in hexane was 155 g/kg. For the same compound, the “pH of optimum stability” value in data set [5] is 4. The “acute oral LD50” value in [6] (rats) is 451 mg/kg. Also, in data set [7], the “acute oral LD50” value was more than 1600 mg/kg. Moreover, the “Acute percutaneous LD50” value in [8] (rats) was more than 5000 mg/kg.
As to `O=[N+]([O-])NC1=NCCN1Cc1ccc(Cl)nc1` [Imidacloprid, 1-(6-chloro-3-pyridylmethyl)-N-nitroimidazolidin-2-yldeneamine], the “Observed Mortality %” value was found to be 55.00% in data set [1] (Table 2, Imidacloprid 24 ppm alone, 5 days after treatment); 69.25% in data set [1] (Table 2, Imidacloprid 27 ppm alone); 72.10% in data set [1] (Table 2, Imidacloprid 30 ppm alone). Moreover, the solubility in n.hexane in [4] (20° C.) was less than 100 µg/mL. In data set [5] (pH 5), the stability to hydrolysis result is on record as “Stable”. In data set [8] (rats, 24 h), the “Acute percutaneous LD50 (24 h)” value is more than 5000 mg/kg. Besides, the “irritation to skin and eyes” value in data set [9] (rabbit, in vivo) is recorded as “Non irritating”. Also, the “inhalation LC50 (4 h)” value in [10] (female rats, aerosol) is recorded as more than 5323 mg/m^3 air. The skin sensitisation entry in data set [11] is recorded as “Not a skin sensitiser”.
As to `CC1(C)C(C=C(Cl)Cl)C1C(=O)OCc1cccc(Oc2ccccc2)c1` (stereo not drawn) [Permethrin, 3-phenoxybenzyl(1RS,3 RS; 1 RS, 3SR)-3-(2,2-dichlorovinyl)-2,2-dimethylcyclopropanecarboxylate], the “duration of residual control of biting flies in animal housing” value in data set [2] (200 mg a.i. (as EC)/square meter wall or 30 mg a.i. (as WP)/m^2 wall) is reported as less than 60 days. The “duration of control of cockroaches and other crawling insets” value in data set [12] is listed as more than 120 days. Also, the “Solubility in Xylene” value in [4] (25° C.) is not below 1 kg/kg. Also, the Solubility in hexane in [4] (25° C.) is more than 1 kg/kg. Further, the Solubility in methanol in data set [4] (25° C.) was 258 g/kg. In addition, in data set [5] (50° C.), the stability to heat is recorded as not below 2 years. For the same compound, the “photochemical stability, in words” value in data set [5] (laboratory studies) is “Some photochemical degradation”. Besides, the “pH of optimum stability” value in data set [5] was 4. The “Typical oral LD50” value in data set [6] (rats, cis/trans ratio of 40:60) was 430 to 4000 mg/kg; in data set [13] (mice, cis/trans ratio of 40:60) it was 540 to 2690 mg/kg; in [14] it was more than 300 mg/kg; in [15], more than 13500 mg/kg.
“(E)-N′-[(6-chloro-3-pyridyl)methyl]-N-cyano-N-methylacetamidine [Acetamiprid]”: the “Observed Mortality %” value was found to be 47.30% in data set [1] (Table 3, Acetamiprid 24 ppm alone); 69.25% in [1] (Table 3, Acetamiprid 27 ppm alone); 72.1% in [1] (Table 3, Acetamiprid 30 ppm alone). Moreover, the solubility in water in data set [3] (25° C.) was 4200 µg/mL. In data set [4] (acetone, methanol, ethanol, dichloromethane, chloroform, acetonitrile and tetrahydrofuron), the “solubility in organic solvents, in words” value is given as “Soluble”. In addition, the “stability in buffered solutions” value is recorded as “Stable” in data set [5] (pH 4,5,7); “Degraded slowly” in [5] (pH 9 and 45° C.). The stability under sunlight result in data set [5] (sunlight) is “Stable”. Further, the “acute oral LD50” value in [6] (female rats) was 146 mg/kg; in [6] (male rats), 217 mg/kg; in [13] (female mice), 184 mg/kg; in [13] (male mice) it was 198 mg/kg. Further, in [8] (male and female rats), the “Acute percutaneous LD50” value is more than 2000 mg/kg. Moreover, the “irritation to skin and eyes” value in data set [9] (rabbits) is given as “Non irritating”. For the same compound, the “inhalation LC50 (4 h)” value in data set [10] (male and female rats) is more than 0.29 mg/L.
